Here are results for 27 compounds from patent US5798387A, “Amino acid derivatives” (Zaidan Hojin Biseibutsu Kagaku Kenkyu Kai, priority 1992, dated 1998).

Experiment [1] deals with T cells. Briefly: T cell proliferation (Test 1), thymidine uptake of Concanavalin A-treated T cells. Format: cell-based, rat (female Fisher 344). As to conditions: Rattus norvegicus, 72 h, 3 days, untreated cells = 100, read-out: Rate of stimulating proliferation of T cells; for activity at 0.1 µg/mL: concentration of compound 0.1 μg/ml; for activity at 1 µg/mL: concentration of compound 1 μg/ml; for activity at 10 µg/mL: concentration of compound 10 μg/ml. From the text: Effects of the novel amino acid derivatives of the general formula (I) on the proliferation of T cells were investigated by the following procedure.
The spleens, which had been excised in sterility from female Fisher 344 rats (12-16 weeks old, purchased from CHARLES RIVER JAPAN, INC), were squeezed in RPMI 1640 medium (a product of NISSUI PHARMACEUTICAL CO., LTD.) supplemented with 10% of fetal bovine serum, followed by passage of the resulting cell suspension through a column containing nylon wool fibres, whereby a cell suspension containing an abundant amount of T cells was obtained. This cell suspension was diluted to a level of 1×10^6 cells/ml with addition of a medium of the same composition as above. The cell-containing medium so obtained was then added with 5 μg/ml of Concanavalin A (product of Pharmacia AB), followed by incubation at 37° C. for 4 hours. Four hours later, α-methylmannoside was added to the incubated medium to give a concentration of 20 mg/ml of α-methylmannoside. After stirring the medium, cells were separated and collected therefrom by centrifugation. The collected cells were suspended at a level of 3×10^6 cells/ml in a medium of the same composition as above, followed by placing the resulting cell suspension in 100 μl portions in a 96-well microplate.
Novel amino acid derivatives at various concentrations, which are shown in Table 4, were incorporated in an amount of 100 μl as the test compounds to the respective cell suspensions in the plate, followed by incubation at 37° C. for 3 days in an incubator under air atmosphere containing 5% of carbon dioxide. Meanwhile, eighteen hours before the completion of the incubation, a solution of 10μ Ci/ml of radioactively labeled thymidine (Thymidine "6-^3 H", a product of NEN Company) was added in an amount of 10 μl to the cell suspensions under incubation. The cells after the incubation were collected on a filter paper by means of a cell harvester, washed with water and radioactivity of the cells so treated was determined by a liquid scintillation counter. The determined values of the radioactivity of the cells as treated with the test compounds were evaluated on the assumption that the determined value of the radioactivity of the cells untreated, namely tested without addition of the test compound during the incubation of cells was amounting to 100. The so evaluated values are recorded and expressed as rates (%) for stimulating the T cell proliferation which show such extent that the proliferation of T cells is enhanced by the new amino acid derivative of this invention.

Experiment [2] has as its system bone-marrow cells (hematopoietic stem cells; megakaryocytes). Briefly: Formation of colonies of megakaryocytes from bone-marrow cells (Test 3). Format: cell-based, mouse (male BALB/c). As to conditions: Mus musculus, Bone marrow cell, 168 h, 7 days, no addition = 100, read-out: Number of colonies of megakaryocytes; for activity at 5 µg/mL: concentration of test compound 5 μg/ml; for activity at 50 µg/mL: concentration of test compound 50 μg/ml. The protocol: The activity of some amino acid derivatives of the general formula (I) according to this invention which induces proliferation of hematopoietic stem cells was tested in the following manner. Thus, bone-marrow cells had been prepared from the femurs of male BALB/c mouse (6-7 weeks old), and then a suspension of the bone-marrow cells was overlayed on "Lympholite M" (product of Cefalane Company), followed by centrifugation under 1500 g for 20 minutes. A lymphocyte fraction was collected, washed three times with "alpha MEM medium" (product of Gibco Company), and then diluted and suspended in the same medium as above to give a lymphocyte concentration of 7×10^6 cells/ml.
[…] of the resulting cell suspension, 50 μl of a solution of a test compound in physiological saline, 50 μl of a culture supernatant of WEHI-3, 100 μl of phosphate-buffered physiological saline, 50 μl of a pre-deionized 10% bovine serum albumin solution, 50 μl of an L-asparagin solution (200 μg/ml), 50 μl of a calcium chloride solution (260 μg/ml) and 50 μl of bovine plasma containing sodium citrate were combined together. The liquid mixture so obtained was poured in portions of 50 μl/well on a slide glass ("Glass Ware", product of Flaw Laboratory Company). After coagulation of the mixture, the slide glass bearing the coagulated masses was immersed in 10% FBS-added alpha MEM medium, followed by incubation at 37° C. under 5% CO2 for 7 days.
After completion of the incubation, the cells on the slide glass were immobilized with a 25% glutaraldehyde solution. In accordance with the methods proposed by Nagasawa et al. ["Zoketsu Kan Saibo (Hematopoietic Stem Cells)" compiled by takahisa Shimamaro, page 128 (The Nishimura Shoten Co., Ltd.)], the immobilized cells were stained for acetylcholinesterase activity which is specific for mouse megakaryocytes, and also the cells were stained with Mayer hematoxylin. Each cell culture so stained was dried and then sealed with a sealing agent. Under a microscope of ×100 magnification, the number of megakaryocytic colonies (i.e., the number of cells stained in an orange color) per well was counted.

Experiment [3] has as its system Ehrlich ascites carcinoma. Put plainly: Antitumor activity (Test 2), Ehrlich ascites carcinoma transplanted subcutaneously. The experiment is classed as in vivo, mouse (ICR). To be noted: tumor weight on day 15 vs control. The method, then: The antitumor activity of some amino acid derivatives of the general formula (I) according to this invention was tested in the following manner. A suspension of Ehrlich ascites carcinoma cells was subcutaneously injected to one of the inguinal parts of each ICR mouse to transplant 4×10^6 cells/mouse. From the seventh day after the transplantation, a test compound was intraperitoneally injected daily for 7 days at a dose of 50, 5 or 0.5 mg/kg (4 mice per treated group of mice, but 8 mice per untreated control group of mice). On the fifteenth day after the transplantation, a solid cancer was cut out and weighed. A reduction in the weight of solid cancers of the mice in each treated group of mice which was evaluated in comparison with the control group is expressed as rate of inhibiting the tumor growth (%) in Table 5 below.

Where a SMILES comes first, the peptide text is derived from it. [ ]: non-standard residue; d: D form. αMeS = C[C](N)(CO)C(=O)O; hSer = N[CH](CCO)C(=O)O

Turning to `CCC(C)CC(=O)NC(C)(CO)C(=O)O` (stereo not shown) [Compound 1], in experiment [1], the activity at 0.1 µg/mL is 292%, the activity at 1 µg/mL is 297% and the activity at 10 µg/mL turned out to be 332%. For the same compound, in experiment [2], the activity at 5 µg/mL is 147%.
The matching figures for `CCC(C)CC(=O)NC(C)(CO)C(=O)OCc1ccccc1` (stereo not shown) [Compound 2]: 208%, 190%, 275% and 122%.
With `CC(O)CCC(=O)NC(C)(CO)C(=O)O` (stereo not shown) [Compound 3], in experiment [1], the activity at 0.1 µg/mL is 123%, the activity at 1 µg/mL stood at 100% and the activity at 10 µg/mL stood at 101%.
The matching figures for `CCCCOC(=O)C(C)(CO)NC(=O)CCC(C)O` (stereo not shown) [Compound 4]: 133%, 135% and 100%.
Consider `CC(O)CC(=O)NC(C)(CO)C(=O)O` (stereo not shown) [Compound 5], for which, in experiment [1], the activity at 0.1 µg/mL amounted to 313%, the activity at 1 µg/mL was 370% and the activity at 10 µg/mL stood at 439%. For the same compound, the activity at 50 µg/mL in experiment [2] was determined as 178%.
With `CC(O)CC(=O)NC(C)(COCc1ccccc1)C(=O)OCc1ccccc1` (stereo not shown) [Compound 6], in experiment [1], the activity at 0.1 µg/mL was 142%, the activity at 1 µg/mL stood at 171% and the activity at 10 µg/mL was determined as 169%. The activity at 5 µg/mL in experiment [2] came out at 126%.
Consider `CC(C)C(O)C(=O)NC(C)(CO)C(=O)O` (stereo not shown) [Compound 7], for which, in experiment [1], the activity at 0.1 µg/mL was found to be 240%, the activity at 1 µg/mL is 222% and the activity at 10 µg/mL was determined as 323%. Besides, the activity at 50 µg/mL in experiment [2] is 166%.
`CC(C)C(O)C(=O)NC(C)(CO)C(=O)OCc1ccccc1` (stereo not shown) [Compound 8]: in experiment [1], the activity at 0.1 µg/mL turned out to be 251%, the activity at 1 µg/mL was found to be 226% and the activity at 10 µg/mL stood at 372%. Moreover, the activity at 5 µg/mL in experiment [2] is 111%.
As to `CC(C)CC(NC(=O)C(O)C(C)C(C)O)C(=O)O` (stereo not shown) [Compound 9], in experiment [1], the activity at 0.1 µg/mL stood at 175%, the activity at 1 µg/mL is 157% and the activity at 10 µg/mL was 196%. For the same compound, in experiment [2], the activity at 50 µg/mL stood at 145%.
For `CC(C)CC(NC(=O)C(O)C(C)C(C)O)C(=O)OCc1ccccc1` (stereo not shown) [Compound 10], in experiment [1], the activity at 0.1 µg/mL is 231%, the activity at 1 µg/mL was found to be 201% and the activity at 10 µg/mL was 251%. Besides, the “Tumor growth inhibiting rate” value in experiment [3] (5 mg/kg i.p. daily for 7 days) was determined as 31%. Further, in experiment [3] (50 mg/kg i.p. daily for 7 days), the “Tumor growth inhibiting rate” value amounted to 58%. The activity at 5 µg/mL in experiment [2] worked out at 138%.
Take `CC(O)C(C)C(O)C(=O)NC(CO)C(=O)O` (stereo not shown) [Compound 11]: in experiment [1], the activity at 0.1 µg/mL stood at 394%, the activity at 1 µg/mL was 392% and the activity at 10 µg/mL was found to be 100%. In addition, in experiment [2], the activity at 5 µg/mL amounted to 150%.
For `CC(O)C(C)C(O)C(=O)NC(CO)C(=O)OCc1ccccc1` (stereo not shown) [Compound 12], in experiment [1], the activity at 0.1 µg/mL stood at 265%, the activity at 1 µg/mL is 185% and the activity at 10 µg/mL stood at 242%. Moreover, the “Tumor growth inhibiting rate” value in experiment [3] (0.5 mg/kg i.p. daily for 7 days) came to 37%. The activity at 5 µg/mL in experiment [2] stood at 105%.
In the case of `CC(CO)(NC(=O)C(O)C(C)(C)CO)C(=O)O` (stereo not shown) [Compound 13], in experiment [1], the activity at 0.1 µg/mL was determined as 405%, the activity at 1 µg/mL turned out to be 352% and the activity at 10 µg/mL was determined as 465%. In addition, in experiment [2], the activity at 5 µg/mL came out at 177%.
The matching figures for `COC(=O)C(C)(CO)NC(=O)C(O)C(C)(C)CO` (stereo not shown) [Compound 14]: 356%, 335%, 443% and 167%.
Turning to `CC(CO)(NC(=O)C(O)C(C)(C)CO)C(=O)OCc1ccccc1` (stereo not shown) [Compound 15], in experiment [1], the activity at 0.1 µg/mL turned out to be 350%, the activity at 1 µg/mL came to 349% and the activity at 10 µg/mL turned out to be 442%. Moreover, the activity at 50 µg/mL in experiment [2] came out at 135%.
For the compound `CC(C)C(O)C(C)C(O)C(=O)NC(C)(CO)C(=O)O` (stereo not shown) [Compound 16], in experiment [1], the activity at 0.1 µg/mL is 200%, the activity at 1 µg/mL came out at 239% and the activity at 10 µg/mL stood at 201%. For the same compound, the activity at 50 µg/mL in experiment [2] amounted to 143%.
`CC(C)C(O)C(C)C(O)C(=O)NC(C)(CO)C(=O)OCc1ccccc1` (stereo not shown) [Compound 17]: in experiment [1], the activity at 0.1 µg/mL is 201%, the activity at 1 µg/mL came to 273% and the activity at 10 µg/mL is 245%. For the same compound, the activity at 5 µg/mL in experiment [2] was 107%.
With `COC(=O)C(CSC)NC(=O)C(O)C(C)C(C)O` (stereo not shown) [Compound 18], in experiment [1], the activity at 0.1 µg/mL was found to be 268%, the activity at 1 µg/mL amounted to 355% and the activity at 10 µg/mL is 427%. Also, the activity at 5 µg/mL in experiment [2] turned out to be 146%.
On the same counts, the results for `CC(O)C(C)C(O)C(=O)NC(CSCc1ccccc1)C(=O)OCc1ccccc1` (stereo not shown) [Compound 20] are 153%, 227%, 261% and 129%.
Regarding `CC(NC(=O)C(O)C(C)C(C)O)C(=O)OCc1ccccc1` (stereo not shown) [Compound 22], the activity at 5 µg/mL in experiment [2] is 108%.
The same measure, in the same setting: the value for `CC(O)C(NC(=O)C(O)C(C)C(C)O)C(=O)O` (stereo not shown) [Compound 23] was 144%; that for `CC(NC(=O)C(O)C(C)C(C)O)C(=O)O` (stereo not shown) [Compound 24] was 136%.
For `CC(O)C(C)C(O)C(=O)NC(C)(C)C(=O)OCc1ccccc1` (stereo not shown) [Compound 25], the activity at 50 µg/mL in experiment [2] was determined as 156%.
On to `CC(O)C(C)C(O)C(=O)NC(C)(C)C(=O)O` (stereo not shown) [Compound 26], for which the activity at 5 µg/mL in experiment [2] turned out to be 136%.
On to `CC(CO)(NC(=O)C(N)CCO)C(=O)O` (stereo not shown) [Compound 27] (H-[hSer]-[αMeS]-OH; configuration not given here), for which the activity at 50 µg/mL in experiment [2] was determined as 143%.
As to `CC(CC(=O)OCc1ccccc1)NC(=O)C(O)C(C)C(C)O` (stereo not shown) [Compound 28], the activity at 5 µg/mL in experiment [2] came out at 121%.
On to `CC(CC(=O)O)NC(=O)C(O)C(C)C(C)O` (stereo not shown) [Compound 29], for which the activity at 50 µg/mL in experiment [2] was 121%.
